Common to all, as to assay type: cell-based
Assay [1] deals with iPS cells 253G1 strain. Nature of the assay: Flow cytometry of Sox17 after endodermal differentiation-induction following undifferentiated culture with β-NMN (Example 5). To be noted: β-NMN 0.25 or 1 mM during undifferentiated culture, then endodermal differentiation-induction; 5th or 7th day; versus absence of β-NMN. The procedure: The effects of culturing in the presence of β-NMN before induction of differentiation on the endodermal differentiation-induction of iPS cells was examined. As the iPS cells, the 253G1 strain was used. iPS cells seeded on a culture dish coated with Matrigel (manufactured by Corning Incorporated) according to the manufacturer's protocol were cultured in a culture medium prepared by adjusting a culture medium for iPS cells to have a final concentration of β-NMN 0, 0.25 or 1 mM, and a final concentration of Rock inhibitor of 10 μM for 1 day. From the 1st day after seeding, the culture medium was replaced every day with a culture medium obtained by removing the Rock inhibitor from the culture medium at the time of seeding. When the confluent reached 70 to 80%, the iPS cells were detached from the culture dish and collected. The collected iPS cells were seeded at 3×10^5 cells/well in a 24-well plate coated with Matrigel (manufactured by Corning Incorporated) according to the manufacturer's protocol. […] After washing the stained cells, a flow cytometer “FACS caliber” (manufactured by Becton, Dickinson and Company) was used to analyze the fluorescence intensity of the anti-Sox17 antibody and the fluorescence intensity of the anti-FoxA2 antibody in each sample. […]
Background: Flow cytometry measures light scatter and fluorescence of single cells or particles in a stream.

The subject of assay [2] is Human adipose tissue-derived mesenchymal stem cells. Nature of the assay: Oil red O staining after adipocyte differentiation-induction of mesenchymal stem cells grown with β-NMN (Example 9). To be noted: growth medium supplemented with 0.1 mM or 0.25 mM of β-NMN; 14th day of adipocyte differentiation-induction; compared with 0 mM. The source says:
The effects of culturing in the presence of β-NMN before adipocyte differentiation-induction of mesenchymal stern cells were examined. In the same manner as in Example 8, Human adipose tissue-derived mesenchymal stem cells (manufactured by Lonza, Cat #PT5006) were used as the mesenchymal stem cells. As a growth culture medium, a culture medium prepared by appropriately adding β-MNM to “MSCGM Bullet Kit” (manufactured by Lonza, Cat #PT3001) was used as in Example 8. As an adipocyte differentiation-inducing culture medium, a culture medium prepared by adjusting a DMEM-High Glucose medium to have a final concentration of fetal bovine serum of 10% by volume, a final concentration of IBMX of 0.5 mM, a final concentration of dexamethasone of 1 μM, a final concentration of indomethacin of 200 μM, and a final concentration of penicillin-streptomycin of 0.1% was used. The culture of the mesenchymal stem cells before differentiation-induction was performed in the same manner as in Example 8. The differentiation induction was performed in the same manner as in Example 8 except that the adipocyte differentiation-inducing culture medium was used instead of the bone differentiation-inducing culture medium. On the 14th day from the initiation of the differentiation-induction, the staining test and the cell RNA recovery were performed. […]

The test system is the same in assay [3]. Nature of the assay: qPCR of PPARγ and adiponectin genes after adipocyte differentiation-induction of mesenchymal stem cells grown with β-NMN (Example 9). To be noted: GAPDH internal standard, 0.1 mM or 0.25 mM of β-NMN, 0 mM defined as 1, 14th day of adipocyte differentiation-induction. The source says:
The effects of culturing in the presence of β-NMN before adipocyte differentiation-induction of mesenchymal stern cells were examined. In the same manner as in Example 8, Human adipose tissue-derived mesenchymal stem cells (manufactured by Lonza, Cat #PT5006) were used as the mesenchymal stem cells. As a growth culture medium, a culture medium prepared by appropriately adding β-MNM to “MSCGM Bullet Kit” (manufactured by Lonza, Cat #PT3001) was used as in Example 8. As an adipocyte differentiation-inducing culture medium, a culture medium prepared by adjusting a DMEM-High Glucose medium to have a final concentration of fetal bovine serum of 10% by volume, a final concentration of IBMX of 0.5 mM, a final concentration of dexamethasone of 1 μM, a final concentration of indomethacin of 200 μM, and a final concentration of penicillin-streptomycin of 0.1% was used. The culture of the mesenchymal stem cells before differentiation-induction was performed in the same manner as in Example 8. The differentiation induction was performed in the same manner as in Example 8 except that the adipocyte differentiation-inducing culture medium was used instead of the bone differentiation-inducing culture medium. […] The relative expression level of each gene was determined from the results of qPCR of cells that were induced to differentiate into adipocytes. […]

Regarding `NC(=O)c1ccc[n+]([C@@H]2O[C@H](COP(=O)([O-])O)[C@@H](O)[C@H]2O)c1` [β-NMN, β-nicotinamide mononucleotide], in assay [1], the “ratio of Sox17-positive cells” value is listed as “higher”. Besides, the “accumulation of lipid droplets (oil red O staining)” value in assay [2] was “more accumulation of lipid droplets”. For the same molecule, in assay [3], the “relative expression level of the PPARγ gene” value is reported as “increase” and the “relative expression level of the adiponectin gene” value is “increase”.

For the origin of these results see patent publication US11814652B2, “Pluripotent stem cell differentiation-promoting agent” (Oriental Yeast Co., Ltd., priority 2018, dated 2023).
